# Inconclusive results and toxic doses are left out.
# Test system: L1210 leukemia ip in BDF1 mice, survival T/C
# Experiment: NCI In Vivo Anticancer Drug Screen. Data for tumor model L1210 Leukemia (intraperitoneal) in B6D2F1 (BDF1) mice
# Details: higher = longer survival
# Method in brief: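 Read-out is survival time, reported as the treated-group measurement over the vehicle-control measurement.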
# [1] = endpoint: mean survival time, dose: 100.0 mg/kg/injection, schedule: Q04DX003 (ip), vehicle: saline with Tween-80
# [2] = endpoint: mean survival time, dose: 200.0 mg/kg/injection, schedule: Q04DX003 (ip), vehicle: saline with Tween-80
# [3] = endpoint: mean survival time, dose: 400.0 mg/kg/injection, schedule: Q04DX003 (ip), vehicle: saline with Tween-80
# [4] = endpoint: mean survival time, dose: 100.0 mg/kg/injection, schedule: Q01DX001 (ip), vehicle: saline
# [5] = endpoint: mean survival time, dose: 200.0 mg/kg/injection, schedule: Q01DX001 (ip), vehicle: saline
# [6] = endpoint: mean survival time, dose: 400.0 mg/kg/injection, schedule: Q01DX001 (ip), vehicle: saline
# [7] = endpoint: mean survival time, dose: 100.0 mg/kg/injection, schedule: Q04DX003 (ip), vehicle: saline
# [8] = endpoint: mean survival time, dose: 200.0 mg/kg/injection, schedule: Q04DX003 (ip), vehicle: saline
# [9] = endpoint: mean survival time, dose: 400.0 mg/kg/injection, schedule: Q04DX003 (ip), vehicle: saline
# [10] = endpoint: mean survival time, dose: 100.0 mg/kg/injection, schedule: Q01DX001 (ip), vehicle: carboxymethylcellulose (CMC)
# [11] = endpoint: mean survival time, dose: 200.0 mg/kg/injection, schedule: Q01DX001 (ip), vehicle: carboxymethylcellulose (CMC)
# [12] = endpoint: mean survival time, dose: 400.0 mg/kg/injection, schedule: Q01DX001 (ip), vehicle: carboxymethylcellulose (CMC)
# [13] = endpoint: mean survival time, dose: 100.0 mg/kg/injection, schedule: Q04DX003 (ip), vehicle: Klucel (hydroxypropylcellulose) (HPC)
# [14] = endpoint: mean survival time, dose: 200.0 mg/kg/injection, schedule: Q04DX003 (ip), vehicle: Klucel (hydroxypropylcellulose) (HPC)
# [15] = endpoint: mean survival time, dose: 400.0 mg/kg/injection, schedule: Q04DX003 (ip), vehicle: Klucel (hydroxypropylcellulose) (HPC)
smiles,measurement,setting,value
CCOC(=O)NCc1cccc2ccccc12,T/C,"endpoint: mean survival time, dose: 50.0 mg/kg/injection, schedule: Q01DX001 (ip), vehicle: Klucel (hydroxypropylcellulose) (HPC)",93 % of control
same,T/C,"endpoint: mean survival time, dose: 100.0 mg/kg/injection, schedule: Q01DX001 (ip), vehicle: Klucel (hydroxypropylcellulose) (HPC)",98 % of control
same,T/C,"endpoint: mean survival time, dose: 200.0 mg/kg/injection, schedule: Q01DX001 (ip), vehicle: Klucel (hydroxypropylcellulose) (HPC)",90 % of control
same,T/C,"endpoint: mean survival time, dose: 400.0 mg/kg/injection, schedule: Q01DX001 (ip), vehicle: Klucel (hydroxypropylcellulose) (HPC)",86 % of control
CC(C)(C)C(=O)Nc1ccc(NS(=O)(=O)c2ccccc2)cc1,T/C,[1],102 % of control
same,T/C,[2],89 % of control
same,T/C,[3],88 % of control
CCC[CH2][Ge]([CH2]CCC)[CH2]CCC.CCC[CH2][Ge]([CH3])[CH2]CCC,T/C,"endpoint: mean survival time, dose: 100.0 mg/kg/injection, schedule: Q04DX002 (ip), vehicle: saline with Tween-80",93 % of control
same,T/C,"endpoint: mean survival time, dose: 200.0 mg/kg/injection, schedule: Q04DX002 (ip), vehicle: saline with Tween-80",89 % of control
same,T/C,"endpoint: mean survival time, dose: 400.0 mg/kg/injection, schedule: Q04DX002 (ip), vehicle: saline with Tween-80",93 % of control
O=NN(Cc1ccc(Cl)cc1)C(=O)NCc1ccc(Cl)cc1,T/C,"endpoint: mean survival time, dose: 400.0 mg/kg/injection, schedule: Q01DX Z (ip), vehicle: carboxymethylcellulose (CMC)",104 % of control
c1ccc2c(c1)ccc1c3ccncc3ccc21,T/C,[4],101 % of control
same,T/C,[5],98 % of control
same,T/C,[6],98 % of control
Cc1ccc(N=Cc2cc(Cl)cc(Cl)c2OC(=O)c2ccccc2)cc1Cl,T/C,"endpoint: mean survival time, dose: 100.0 mg/kg/injection, schedule: Q04DX002 (ip), vehicle: Klucel (hydroxypropylcellulose) (HPC)",94 % of control
same,T/C,"endpoint: mean survival time, dose: 200.0 mg/kg/injection, schedule: Q04DX002 (ip), vehicle: Klucel (hydroxypropylcellulose) (HPC)",111 % of control
same,T/C,"endpoint: mean survival time, dose: 400.0 mg/kg/injection, schedule: Q04DX002 (ip), vehicle: Klucel (hydroxypropylcellulose) (HPC)",97 % of control
CCCCCCCCCCCCc1ccc(CSC(C(=O)OC)C(SCc2ccc(CCCCCCCCCCCC)cc2)C(=O)OC)cc1 (configuration not stated),T/C,[7],103 % of control
same,T/C,[8],101 % of control
same,T/C,[9],94 % of control
Clc1ccc(N(c2ccccc2)c2ccccc2)cc1,T/C,[10],115 % of control
same,T/C,[11],100 % of control
same,T/C,[12],108 % of control
CCOC(=O)CC(=O)C1CCCCC1,T/C,"endpoint: mean survival time, dose: 50.0 mg/kg/injection, schedule: Q01DX001 (ip), vehicle: carboxymethylcellulose (CMC)",95 % of control
same,T/C,[10],95 % of control
same,T/C,[11],97 % of control
same,T/C,[12],95 % of control
ClB(Cl)c1ccc(Br)cc1,T/C,[4],97 % of control
same,T/C,[5],86 % of control
same,T/C,[6],95 % of control
Cc1cn(C2OC(CO)C(O)C(O)C2O)c(=O)[nH]c1=O (configuration not stated),T/C,[4],97 % of control
same,T/C,[5],97 % of control
same,T/C,[6],94 % of control
CC(C)N(C(=O)Nc1cccc(OC(=O)N(C)C)c1)C(C)C,T/C,[1],94 % of control
same,T/C,[2],88 % of control
same,T/C,[3],96 % of control
C1=C[P+](c2ccccc2)(c2ccccc2)CC[P+]1(c1ccccc1)c1ccccc1,T/C,"endpoint: mean survival time, dose: 75.0 mg/kg/injection, schedule: Q01DX001 (ip), vehicle: other",98 % of control
same,T/C,"endpoint: mean survival time, dose: 150.0 mg/kg/injection, schedule: Q01DX001 (ip), vehicle: other",95 % of control
CC(=O)c1c(C)cc(C)nc1C,T/C,[4],96 % of control
same,T/C,[5],102 % of control
CCOC12c3cc(OC)ccc3N(S(=O)(=O)c3ccc(C)cc3)CC1C2(Br)Br (configuration not stated),T/C,"endpoint: mean survival time, dose: 100.0 mg/kg/injection, schedule: Q01DX009 (ip), vehicle: Klucel (hydroxypropylcellulose) (HPC)",97 % of control
same,T/C,[13],100 % of control
same,T/C,"endpoint: mean survival time, dose: 200.0 mg/kg/injection, schedule: Q01DX009 (ip), vehicle: Klucel (hydroxypropylcellulose) (HPC)",87 % of control
same,T/C,[14],100 % of control
same,T/C,"endpoint: mean survival time, dose: 400.0 mg/kg/injection, schedule: Q01DX009 (ip), vehicle: Klucel (hydroxypropylcellulose) (HPC)",94 % of control
same,T/C,[15],91 % of control
CCCCn1cc(S(=O)(=O)Nc2ccccc2)c(=O)[nH]c1=O,T/C,"endpoint: mean survival time, dose: 37.5 mg/kg/injection, schedule: Q01DX001 (ip), vehicle: saline with Tween-80",104 % of control
same,T/C,"endpoint: mean survival time, dose: 75.0 mg/kg/injection, schedule: Q01DX001 (ip), vehicle: saline with Tween-80",98 % of control
same,T/C,"endpoint: mean survival time, dose: 150.0 mg/kg/injection, schedule: Q01DX001 (ip), vehicle: saline with Tween-80",98 % of control
CC(C)N(C(=O)Nc1cc([N+](=O)[O-])ccc1F)c1ccccc1,T/C,[13],96 % of control
same,T/C,[14],100 % of control
same,T/C,[15],96 % of control
O=S(=O)(O)c1ccc(O)cc1,T/C,"endpoint: mean survival time, dose: 50.0 mg/kg/injection, schedule: Q04DX003 (ip), vehicle: Klucel (hydroxypropylcellulose) (HPC)",98 % of control
same,T/C,"endpoint: mean survival time, dose: 100.0 mg/kg/injection, schedule: Q01DX009 (ip), vehicle: saline",110 % of control
same,T/C,[13],104 % of control
same,T/C,[7],114 % of control
same,T/C,"endpoint: mean survival time, dose: 200.0 mg/kg/injection, schedule: Q01DX009 (ip), vehicle: saline",107 % of control
same,T/C,[14],124 % of control
same,T/C,[8],97 % of control
same,T/C,"endpoint: mean survival time, dose: 400.0 mg/kg/injection, schedule: Q01DX009 (ip), vehicle: saline",101 % of control
same,T/C,[9],101 % of control
CCCCCCCCCCCCCC(CCCCCC)c1ccccc1 (configuration not stated),T/C,"endpoint: mean survival time, dose: 100.0 mg/kg/injection, schedule: Q01DX001 (ip), vehicle: saline + alcohol",119 % of control
same,T/C,"endpoint: mean survival time, dose: 200.0 mg/kg/injection, schedule: Q01DX001 (ip), vehicle: saline + alcohol",106 % of control
same,T/C,"endpoint: mean survival time, dose: 400.0 mg/kg/injection, schedule: Q01DX001 (ip), vehicle: saline + alcohol",95 % of control
CN(CCO)/N=N/c1[nH]ncc1C(N)=O,T/C,"endpoint: mean survival time, dose: 54.0 mg/kg/injection, schedule: Q01DX009 (ip), vehicle: other",124 % of control
same,T/C,"endpoint: mean survival time, dose: 176.0 mg/kg/injection, schedule: Q01DX009 (ip), vehicle: other",159 % of control
same,T/C,"endpoint: mean survival time, dose: 345.0 mg/kg/injection, schedule: Q01DX009 (ip), vehicle: saline with Tween-80",163 % of control
same,T/C,"endpoint: mean survival time, dose: 400.0 mg/kg/injection, schedule: Q01DX009 (ip), vehicle: other",159 % of control
same,T/C,"endpoint: mean survival time, dose: 472.25 mg/kg/injection, schedule: Q01DX001 (ip), vehicle: saline with Tween-80",109 % of control
same,T/C,"endpoint: mean survival time, dose: 600.0 mg/kg/injection, schedule: Q01DX009 (ip), vehicle: other",189 % of control
same,T/C,"endpoint: mean survival time, dose: 690.0 mg/kg/injection, schedule: Q01DX009 (ip), vehicle: saline with Tween-80",192 % of control
same,T/C,"endpoint: mean survival time, dose: 900.0 mg/kg/injection, schedule: Q01DX009 (ip), vehicle: other",196 % of control
same,T/C,"endpoint: mean survival time, dose: 944.5 mg/kg/injection, schedule: Q01DX001 (ip), vehicle: saline with Tween-80",119 % of control
same,T/C,"endpoint: median survival time, dose: 63.0 mg/kg/injection, schedule: Q01DX009 (ip), vehicle: saline",119 % of control
same,T/C,"endpoint: median survival time, dose: 250.0 mg/kg/injection, schedule: Q01DX009 (ip), vehicle: saline",156 % of control
same,T/C,"endpoint: median survival time, dose: 500.0 mg/kg/injection, schedule: Q01DX009 (ip), vehicle: saline",173 % of control
same,T/C,"endpoint: median survival time, dose: 1000.0 mg/kg/injection, schedule: Q01DX009 (ip), vehicle: saline",201 % of control
